Laboratory results taken from US20260285850A1, “SUBSTITUTED OXAZOLIDINONES AND IMIDAZOLINONES AS HERBICIDES” (FMC CORPORATION, priority 2023, published 2026).

Legend:
Type in all cases: in vivo
[1] = system: ragweed (common ragweed, Ambrosia artemisiifolia); assay: Test A postemergence application, visual injury rating 0-100; conditions: Postemergence, 1000 g ai/ha, 0 to 100 scale, 10 days
In short: (§1)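 Rating: visual, day 10, untreated plants as reference, 0 no effect to 100 full control. Plants were in loam-sand and were treated either preemergence via directed soil spray or postemergence at the one- to two-leaf stage.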

[2] = system: foxtail, giant (giant foxtail, Setaria faberi); assay: as above; conditions: 1000 g ai/ha, 0 to 100 scale, 10 days
In short: as §1

[3] = system: horseweed (Erigeron canadensis); assay: as above; conditions: Postemergence, 1000 g ai/ha, 0 to 100 scale, 10 days
In short: as §1

[4] = system: kochia (Bassia scoparia); assay: as above; conditions: Postemergence, 1000 g ai/ha, 0 to 100 scale, 10 days
In short: as §1

[5] = system: barnyardgrass (Echinochloa crus-galli); assay: as above; conditions: Postemergence, 1000 g ai/ha, 0 to 100 scale, 10 days
In short: as §1

[6] = system: ryegrass, Italian (italian ryegrass, Lolium multiflorum); assay: as above; conditions: Postemergence, 1000 g ai/ha, 0 to 100 scale, 10 days
In short: as §1

[7] = system: galium (catchweed bedstraw, Galium aparine); assay: as above; conditions: Postemergence, 1000 g ai/ha, 0 to 100 scale, 10 days
In short: as §1

[8] = system: palmer (palmer amaranth, palmer pigweed, Amaranthus palmeri); assay: as above; conditions: Postemergence, 1000 g ai/ha, 0 to 100 scale, 10 days
In short: as §1

[9] = system: blackgrass (Alopecurus myosuroides); assay: as above; conditions: Postemergence, 1000 g ai/ha, 0 to 100 scale, 10 days
In short: as §1

[10] = system: rice (Oryza sativa); assay: Test B flooded paddy test, visual plant response rating 0-100; conditions: 250 g ai/ha, Flood, applied to paddy water, evaluated after 13 days
In short: (§2)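 2-leaf plants; flood 3 cm over soil; compound dosed into paddy water; depth kept constant; greenhouse 13 d; visual scoring vs controls. Dash = no result.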

[11] = system: ducksalad (Heteranthera limosa); assay: as above; conditions: 250 g ai/ha, Flood, applied to paddy water, evaluated after 13 days
In short: as §2

[12] = system: sedge, umbrella (small-flower umbrella sedge, Cyperus difformis); assay: as above; conditions: 250 g ai/ha, Flood, applied to paddy water, evaluated after 13 days
In short: as §2

[13] = system: barnyardgrass (Echinochloa crusgalli); assay: as above; conditions: 250 g ai/ha, Flood, applied to paddy water, evaluated after 13 days
In short: as §2

[14] = system: ragweed (common ragweed, Ambrosia artemisiifolia); assay: Test A preemergence soil spray, visual injury rating 0-100; conditions: 1000 g ai/ha, 10 days, 0 = no effect, 100 = complete control
In short: as §1

[15] = system: foxtail, giant (giant foxtail, Setaria faberi); assay: as above; conditions: 1000 g ai/ha, 10 days, 0 = no effect, 100 = complete control
In short: as §1

[16] = system: kochia (Bassia scoparia); assay: as above; conditions: 1000 g ai/ha, 10 days, 0 = no effect, 100 = complete control
In short: as §1

[17] = system: barnyardgrass (Echinochloa crus-galli); assay: as above; conditions: 1000 g ai/ha, 10 days, 0 = no effect, 100 = complete control
In short: as §1

[18] = system: ryegrass, Italian (italian ryegrass, Lolium multiflorum); assay: as above; conditions: 1000 g ai/ha, 10 days, 0 = no effect, 100 = complete control
In short: as §1

[19] = system: palmer (palmer amaranth, palmer pigweed, Amaranthus palmeri); assay: as above; conditions: 1000 g ai/ha, 10 days, 0 = no effect, 100 = complete control
In short: as §1

[20] = system: blackgrass (Alopecurus myosuroides); assay: as above; conditions: 1000 g ai/ha, 10 days, 0 = no effect, 100 = complete control
In short: as §1

CCCS(=O)(=O)NC(=O)C1C=CC(NC(=O)C2(C)CN(c3cc(F)cc(F)c3)C(=O)O2)C1 (stereo not shown) [Compound 50]
Ragweed plant response rating [1]: 70 | Foxtail, Giant plant response rating [2]: 90 | Horseweed plant response rating [3]: 70 | Kochia plant response rating [4]: 70 | Barnyardgrass plant response rating [5]: 90 | Ryegrass, Italian plant response rating [6]: 100 | Galium plant response rating [7]: 80 | Amaranth, Palmer plant response rating [8]: 90 | Blackgrass plant response rating [9]: 90 | Plant response rating, Rice (0 to 100 scale, 0 is no effect and 100 is complete control) [10]: 75 | Plant response rating, Ducksalad (0 to 100 scale, 0 is no effect and 100 is complete control) [11]: 70 | Plant response rating, Sedge, Umbrella (0 to 100 scale, 0 is no effect and 100 is complete control) [12]: 60 | Plant response rating, Barnyardgrass (0 to 100 scale, 0 is no effect and 100 is complete control) [13]: 60 | Ragweed plant response rating (0 to 100 scale) [14]: 50 | Foxtail, Giant plant response rating (0 to 100 scale) [15]: 90 | Kochia plant response rating (0 to 100 scale) [16]: 100 | Barnyardgrass plant response rating (0 to 100 scale) [17]: 90 | Ryegrass, Italian plant response rating (0 to 100 scale) [18]: 100 | Amaranth, Palmer / Pigweed, Palmer plant response rating (0 to 100 scale) [19]: 100 | Blackgrass plant response rating (0 to 100 scale) [20]: 90

CC(C)OC(=O)C1C=CC(NC(=O)C2(C)CN(c3cc(F)cc(F)c3)C(=O)O2)C1 (stereo not shown) [Compound 52]
Ragweed plant response rating [1]: 70 | Foxtail, Giant plant response rating [2]: 90 | Horseweed plant response rating [3]: 100 | Kochia plant response rating [4]: 70 | Barnyardgrass plant response rating [5]: 100 | Ryegrass, Italian plant response rating [6]: 60 | Galium plant response rating [7]: 80 | Amaranth, Palmer plant response rating [8]: 90 | Blackgrass plant response rating [9]: 90 | Plant response rating, Rice (0 to 100 scale, 0 is no effect and 100 is complete control) [10]: 65 | Plant response rating, Ducksalad (0 to 100 scale, 0 is no effect and 100 is complete control) [11]: 60 | Plant response rating, Sedge, Umbrella (0 to 100 scale, 0 is no effect and 100 is complete control) [12]: 90 | Plant response rating, Barnyardgrass (0 to 100 scale, 0 is no effect and 100 is complete control) [13]: 75 | Ragweed plant response rating (0 to 100 scale) [14]: 90 | Foxtail, Giant plant response rating (0 to 100 scale) [15]: 100 | Kochia plant response rating (0 to 100 scale) [16]: 100 | Barnyardgrass plant response rating (0 to 100 scale) [17]: 100 | Ryegrass, Italian plant response rating (0 to 100 scale) [18]: 100 | Amaranth, Palmer / Pigweed, Palmer plant response rating (0 to 100 scale) [19]: 100 | Blackgrass plant response rating (0 to 100 scale) [20]: 90
